Experimental data published in patent US12448391B2, “Bicyclic derivatives for treating endoparasites” (Elanco Tiergesundheit AG, priority 2019, dated 2025).

Tests used:
D. immitis microfilariae = test: Dog heart worm microfilariae motility assay; type: cell-based; conditions: Dirofilaria immitis, read-out: EC50 (motility inhibition)
H. contortus larvae = test: H. contortus Larval Development Assay (Hc LDA); conditions: Haemonchus contortus, read-out: EC50 (motility inhibition)
Method: Ruminant Gastrointestinal (H. contortus Larval Development Assay (Hc LDA)):
H.c. eggs isolated from lamb fecal matter are allowed to hatch overnight. Test compounds are diluted in DMSO and added to a 96-well plate containing appropriate media. H.c. larvae are added to each well and plates are incubated for the desired time(s). Motility is assessed using an LCD camera imaging system. Percent motility inhibition values are generated relative to the average of the DMSO-only wells.

## CON(C)c1c(C(=O)NN2CCOc3ccccc32)cnc2c(-c3cc(F)cc(F)c3F)nccc12 [Example 2.5, N-(2,3-dihydro-1,4-benzoxazin-4-yl)-4-[methoxy(methyl)amino]-8-(2,3,5-trifluorophenyl)-1,7-naphthyridine-3-carboxamide]
D. immitis microfilariae
  EC50: < 0.1 µg/mL
H. contortus larvae
  EC50: < 1 µg/mL

## O=C(NN1CCOc2ccccc21)c1cnc2c(-c3cc(F)cc(F)c3F)ccnc2c1N1CCOCC1 [Example 3.4, N-(2,3-dihydro-1,4-benzoxazin-4-yl)-4-morpholino-8-(2,3,5-trifluorophenyl)-1,5-naphthyridine-3-carboxamide]
D. immitis microfilariae
  EC50: < 0.1 µg/mL
H. contortus larvae
  EC50: < 1 µg/mL

## O=C(NN1CCOc2ccccc21)c1cnc2c(-c3cc(Cl)cc(Cl)c3)nccc2c1N1CCOCC1 [Example 2.3, 8-(3,5-dichlorophenyl)-N-(2,3-dihydro-1,4-benzoxazin-4-yl)-4-morpholino-1,7-naphthyridine-3-carboxamide]
D. immitis microfilariae
  EC50: < 0.1 µg/mL
H. contortus larvae
  EC50: < 1 µg/mL

## O=C(NN1CCOc2ccccc21)c1cnc2c(-c3cc(Cl)c(F)c(Cl)c3)nccc2c1N1CCOCC1 [Example 2.8, 8-(3,5-dichloro-4-fluoro-phenyl)-N-(2,3-dihydro-1,4-benzoxazin-4-yl)-4-morpholino-1,7-naphthyridine-3-carboxamide]
D. immitis microfilariae
  EC50: < 0.1 µg/mL
H. contortus larvae
  EC50: < 1 µg/mL

## O=C(NN1CCOc2ccccc21)c1cnc2c(-c3cc(Cl)nc(C(F)(F)F)c3)cccc2c1N1CCOCC1 [Example 5.11, 8-[2-chloro-6-(trifluoromethyl)-4-pyridyl]-N-(2,3-dihydro-1,4-benzoxazin-4-yl)-4-morpholino-quinoline-3-carboxamide]
D. immitis microfilariae
  EC50: < 0.1 µg/mL
H. contortus larvae
  EC50: < 1 µg/mL

## O=C(NN1CCOc2ccccc21)c1cnc2c(-c3cncc(F)c3Cl)cccc2c1N1CCOCC1 [Example 5.21, 8-(4-chloro-5-fluoro-3-pyridyl)-N-(2,3-dihydro-1,4-benzoxazin-4-yl)-4-morpholino-quinoline-3-carboxamide]
D. immitis microfilariae
  EC50: < 0.1 µg/mL
H. contortus larvae
  EC50: < 1 µg/mL

## O=C(NN1CCOc2ccccc21)c1cnc2c(-c3cccc(Cl)c3Cl)nccc2c1N1CCOCC1 [Example 2.7, N-(2,3-dihydro-1,4-benzoxazin-4-yl)-4-morpholino-8-(2,3-dichlorophenyl)-1,7-naphthyridine-3-carboxamide]
D. immitis microfilariae
  EC50: < 0.1 µg/mL

## O=C(NN1CCOc2ccccc21)c1cnc2c(-c3cc(F)c(F)c(F)c3F)cccc2c1N1CCOCC1 [Example 5.20, N-(2,3-dihydro-1,4-benzoxazin-4-yl)-4-morpholino-8-(2,3,4,5-tetrafluorophenyl)quinoline-3-carboxamide]
D. immitis microfilariae
  EC50: < 0.1 µg/mL
H. contortus larvae
  EC50: < 1 µg/mL

## CN(C)c1c(C(=O)NN2CCOc3ccccc32)ccc2c(-c3cc(Cl)cc(Cl)c3)cccc12 [Example 4.1, 5-(3,5-dichlorophenyl)-N-(2,3-dihydro-1,4-benzoxazin-4-yl)-1-(dimethylamino)naphthalene-2-carboxamide]
D. immitis microfilariae
  EC50: < 0.1 µg/mL
H. contortus larvae
  EC50: < 1 µg/mL

## O=C(NN1CCOc2ccccc21)c1cnc2c(-c3cc(Cl)cc(Cl)c3)c(F)ccc2c1N1CCOCC1 [Example 5.7, 8-(3,5-dichlorophenyl)-N-(2,3-dihydro-1,4-benzoxazin-4-yl)-7-fluoro-4-morpholino-quinoline-3-carboxamide]
D. immitis microfilariae
  EC50: < 0.1 µg/mL
H. contortus larvae
  EC50: < 1 µg/mL

## O=C(NN1CCc2ccccc21)c1cnc2c(-c3cc(F)cc(F)c3F)cccc2c1N1CCOCC1 [Example 5.24, N-indolin-1-yl-4-morpholino-8-(2,3,5-trifluorophenyl)quinoline-3-carboxamide]
D. immitis microfilariae
  EC50: < 0.1 µg/mL
H. contortus larvae
  EC50: < 1 µg/mL

## O=C(NN1CCOc2ccccc21)c1cnc2c(-c3cc(Cl)cc(Cl)c3)ncnc2c1N1CCOCC1 [Example 6.1, 4-(3,5-dichlorophenyl)-N-(2,3-dihydro-1,4-benzoxazin-4-yl)-8-morpholino-pyrido[3,2-d]pyrimidine-7-carboxamide]
D. immitis microfilariae
  EC50: < 0.1 µg/mL
H. contortus larvae
  EC50: < 1 µg/mL

## O=C(NN1CCOc2ccccc21)c1cnc2c(-c3cc(F)cc(F)c3F)cccc2c1N1CCOCC1 [Example 5.6, N-(2,3-dihydro-1,4-benzoxazin-4-yl)-4-morpholino-8-(2,3,5-trifluorophenyl)quinoline-3-carboxamide]
D. immitis microfilariae
  EC50: < 0.1 µg/mL
H. contortus larvae
  EC50: < 1 µg/mL

## O=C(NN1CCOc2ccccc21)c1cnc2c(-c3cc(Cl)cc(C(F)(F)F)n3)cccc2c1N1CCOCC1 [Example 5.22, 8-[4-chloro-6-(trifluoromethyl)-2-pyridyl]-N-(2,3-dihydro-1,4-benzoxazin-4-yl)-4-morpholino-quinoline-3-carboxamide]
D. immitis microfilariae
  EC50: < 0.1 µg/mL
H. contortus larvae
  EC50: < 1 µg/mL

## O=C(NN1CCOc2ccccc21)c1cnc2c(-c3cc(F)cc(F)c3)c(F)ccc2c1N1CCOCC1 [Example 5.8, 8-(3,5-difluorophenyl)-N-(2,3-dihydro-1,4-benzoxazin-4-yl)-7-fluoro-4-morpholino-quinoline-3-carboxamide]
D. immitis microfilariae
  EC50: < 0.1 µg/mL
H. contortus larvae
  EC50: < 1 µg/mL

## O=C(NN1CCOc2ccccc21)c1cnc2c(-c3cc(Cl)cnc3F)cccc2c1N1CCOCC1 [Example 5.14, 8-(5-chloro-2-fluoro-3-pyridyl)-N-(2,3-dihydro-1,4-benzoxazin-4-yl)-4-morpholino-quinoline-3-carboxamide]
D. immitis microfilariae
  EC50: < 0.1 µg/mL
H. contortus larvae
  EC50: < 1 µg/mL

## CN(C)c1c(C(=O)NN2CCOc3ccccc32)cnc2c(-c3cc(Cl)cc(Cl)c3)nccc12 [Example 2.1, 8-(3,5-dichlorophenyl)-N-(2,3-dihydro-1,4-benzoxazin-4-yl)-4-(dimethylamino)-1,7-naphthyridine-3-carboxamide]
D. immitis microfilariae
  EC50: < 0.1 µg/mL
H. contortus larvae
  EC50: < 1 µg/mL

## CN(C)c1c(C(=O)NN2CCOc3ccccc32)cnc2c(-c3cc(Cl)cc(Cl)c3)ccnc12 [Example 3.1, 8-(3,5-dichlorophenyl)-N-(2,3-dihydro-1,4-benzoxazin-4-yl)-4-(dimethylamino)-1,5-naphthyridine-3-carboxamide]
D. immitis microfilariae
  EC50: < 0.1 µg/mL
H. contortus larvae
  EC50: < 1 µg/mL

## O=C(NN1CCOc2ccccc21)c1cnc2c(-c3cncc(Cl)c3Cl)cccc2c1N1CCOCC1 [Example 5.18, 8-(4,5-dichloro-3-pyridyl)-N-(2,3-dihydro-1,4-benzoxazin-4-yl)-4-morpholino-quinoline-3-carboxamide]
D. immitis microfilariae
  EC50: < 0.1 µg/mL
H. contortus larvae
  EC50: < 1 µg/mL

## O=C(NN1CCOc2ccccc21)c1cnc2c(-c3cc(Cl)nc(Cl)c3)cccc2c1N1CCOCC1 [Example 5.12, 8-(2,6-dichloro-4-pyridyl)-N-(2,3-dihydro-1,4-benzoxazin-4-yl)-4-morpholino-quinoline-3-carboxamide]
D. immitis microfilariae
  EC50: < 0.1 µg/mL
H. contortus larvae
  EC50: < 1 µg/mL

## O=C(NN1CCOc2ccccc21)c1cnc2c(-c3cccc(Cl)c3Cl)cccc2c1N1CCOCC1 [Example 5.2, 8-(2,3-dichlorophenyl)-N-(2,3-dihydro-1,4-benzoxazin-4-yl)-4-morpholino-quinoline-3-carboxamide]
D. immitis microfilariae
  EC50: < 0.1 µg/mL
H. contortus larvae
  EC50: < 1 µg/mL

## CN(C)c1c(C(=O)NN2CCOc3ccccc32)cnc2c(-c3cc(Cl)cc(Cl)c3)cccc12 [Example 5.1, 8-(3,5-dichlorophenyl)-N-(2,3-dihydro-4H-benzo[b][1,4]oxazin-4-yl)-4-(dimethylamino)quinoline-3-carboxamide]
D. immitis microfilariae
  EC50: < 0.1 µg/mL
H. contortus larvae
  EC50: < 1 µg/mL

## O=C(NN1CCOc2ccccc21)c1cnc2c(-c3cc(F)cc(F)c3F)cccc2c1N1CCS(=O)(=O)CC1 [Example 5.15, N-(2,3-dihydro-1,4-benzoxazin-4-yl)-4-(1,1-dioxo-1,4-thiazinan-4-yl)-8-(2,3,5-trifluorophenyl)quinoline-3-carboxamide]
D. immitis microfilariae
  EC50: < 0.1 µg/mL
H. contortus larvae
  EC50: < 1 µg/mL

## O=C(NN1CCOc2ccccc21)c1cnc2c(-c3cc(F)cc(F)c3F)c(F)ccc2c1N1CCOCC1 [Example 5.4, N-(2,3-dihydro-1,4-benzoxazin-4-yl)-7-fluoro-4-morpholino-8-(2,3,5-trifluorophenyl)quinoline-3-carboxamide]
D. immitis microfilariae
  EC50: < 0.1 µg/mL
H. contortus larvae
  EC50: < 1 µg/mL

## O=C(NN1CCOc2ccccc21)c1cnc2c(-c3cc(Cl)cc(Cl)c3F)cccc2c1N1CCOCC1 [Example 5.13, 8-(3,5-dichloro-2-fluoro-phenyl)-N-(2,3-dihydro-1,4-benzoxazin-4-yl)-4-morpholino-quinoline-3-carboxamide]
D. immitis microfilariae
  EC50: < 0.1 µg/mL
H. contortus larvae
  EC50: < 1 µg/mL

## O=C(NN1CCOc2ccccc21)c1cnc2c(-c3cc(Cl)cc(F)c3F)cccc2c1N1CCOCC1 [Example 5.19, 8-(5-chloro-2,3-difluoro-phenyl)-N-(2,3-dihydro-1,4-benzoxazin-4-yl)-4-morpholino-quinoline-3-carboxamide]
D. immitis microfilariae
  EC50: < 0.1 µg/mL
H. contortus larvae
  EC50: < 1 µg/mL

## O=C(NN1CCOc2ccccc21)c1cnc2c(-c3cc(F)cc(F)c3F)nccc2c1N1CCOCC1 [Example 2.4, N-(2,3-dihydro-1,4-benzoxazin-4-yl)-4-morpholino-8-(2,3,5-trifluorophenyl)-1,7-naphthyridine-3-carboxamide]
D. immitis microfilariae
  EC50: < 0.1 µg/mL
H. contortus larvae
  EC50: < 1 µg/mL

## CN(C)c1c(C(=O)NN2CCOc3ccccc32)cnc2c(-c3cccc(Cl)c3Cl)ccnc12 [Example 3.2, 8-(2,3-dichlorophenyl)-N-(2,3-dihydro-1,4-benzoxazin-4-yl)-4-(dimethylamino)-1,5-naphthyridine-3-carboxamide]
D. immitis microfilariae
  EC50: < 0.1 µg/mL
H. contortus larvae
  EC50: < 1 µg/mL

## O=C(NN1CCOc2ccccc21)c1cnc2c(-c3cc(Cl)cc(Cl)c3)ccnc2c1N1CCOCC1 [Example 3.3, 8-(3,5-dichlorophenyl)-N-(2,3-dihydro-1,4-benzoxazin-4-yl)-4-morpholino-1,5-naphthyridine-3-carboxamide]
D. immitis microfilariae
  EC50: < 0.1 µg/mL
H. contortus larvae
  EC50: < 1 µg/mL

## O=C(NN1CCOc2ccccc21)c1cnc2c(-c3cc(F)c(F)cc3F)cccc2c1N1CCOCC1 [Example 5.16, N-(2,3-dihydro-1,4-benzoxazin-4-yl)-4-morpholino-8-(2,4,5-trifluorophenyl)quinoline-3-carboxamide]
D. immitis microfilariae
  EC50: < 0.1 µg/mL
H. contortus larvae
  EC50: < 1 µg/mL

## O=C(NN1CCOc2ccccc21)c1cnc2c(-c3cc(Cl)cc(Cl)c3)cncc2c1N1CCOCC1 [Example 7.1, 8-(3,5-dichlorophenyl)-N-(2,3-dihydro-1,4-benzoxazin-4-yl)-4-morpholino-1,6-naphthyridine-3-carboxamide]
D. immitis microfilariae
  EC50: < 0.1 µg/mL
H. contortus larvae
  EC50: < 1 µg/mL
